Laboratory results: ChEMBL document CHEMBL1201862, “PubChem BioAssay data set” (2004)
Active and inactive are the calls of the source.

Assays:
[1] = biological target: Glyceraldehyde-3-phosphate dehydrogenase (Homo sapiens, UniProt P04406)
[2] = rise of 4N DNA cells, HeLa – IC50, dose response (AID 1117351); format: functional, cell-based
[3] = rise of 2N DNA cells, HeLa – IC50, dose response (AID 1117349); format: functional, cell-based
[4] = biological target: T1, Endoribonuclease toxin MazF (Escherichia coli K-12, UniProt P0AE70); test: substrate-only fluorescence increase artefacts – biochemical, single-stranded RNase substrate, counter-screen for MazEF activator project, dose response (AID 588502); format: functional
T1 sequence (P0AE70 whole entry): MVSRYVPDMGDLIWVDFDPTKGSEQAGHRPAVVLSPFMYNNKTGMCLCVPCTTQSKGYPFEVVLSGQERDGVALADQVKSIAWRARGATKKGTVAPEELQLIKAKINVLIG

[5] = HIV-1 Vif–A3G interaction blockers – biochemical, TR-FRET, GST-Vif 1-94, biotin-A3G peptide, dose response retest, primary screen (AID 1117319); format: functional;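 note: TR-FRET signal of purified GST-Vif binding a biotinylated A3G peptide; inhibitors lower the FRET signal by blocking Vif and A3G binding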
[6] = biological target: T1, Endoribonuclease toxin MazF; test: activation of MazEF endoribonuclease cleavage – biochemical, fluorescence, single-stranded RNA substrate, uHTS hits, dose response (AID 588481); format: functional
[7] = viability loss in THP-1 monocytes – THP-1 cells, cytotoxicity control for Vif-APOBEC3G degradation inhibitor project, dose response (AID 1117359); format: functional; conditions: THP-1
[8] = A cytotoxicity screen of small molecule inhibitors of the PhoP region in Salmonella typhi identified in the primary screen. [Related pubchem assays: 1850, 1864, 1985 ]; format: functional
[9] = biological target: T2, Estrogen receptor (Homo sapiens, UniProt P03372);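 note: potency for inhibiting coactivator peptide recruitment to the receptor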
T2 sequence (P03372 whole entry): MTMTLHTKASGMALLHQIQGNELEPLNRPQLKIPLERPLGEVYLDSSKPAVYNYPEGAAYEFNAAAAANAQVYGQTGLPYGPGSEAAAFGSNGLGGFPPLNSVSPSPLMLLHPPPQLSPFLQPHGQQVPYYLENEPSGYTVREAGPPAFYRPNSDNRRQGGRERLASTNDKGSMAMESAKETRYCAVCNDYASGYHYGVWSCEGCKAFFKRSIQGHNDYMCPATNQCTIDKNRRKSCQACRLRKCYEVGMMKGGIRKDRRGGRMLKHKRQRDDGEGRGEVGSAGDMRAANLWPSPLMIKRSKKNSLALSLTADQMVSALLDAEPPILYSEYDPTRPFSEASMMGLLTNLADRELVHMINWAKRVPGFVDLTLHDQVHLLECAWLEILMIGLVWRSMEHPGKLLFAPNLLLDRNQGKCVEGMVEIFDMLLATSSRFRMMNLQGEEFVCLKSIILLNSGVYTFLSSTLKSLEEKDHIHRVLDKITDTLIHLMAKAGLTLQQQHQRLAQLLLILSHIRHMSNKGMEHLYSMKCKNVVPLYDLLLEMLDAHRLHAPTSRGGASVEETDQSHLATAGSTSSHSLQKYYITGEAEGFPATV

[10] = biological target: Major prion protein (Homo sapiens, UniProt P04156); format: functional, cell-based
[11] = cells
[12] = biological target: T3, Heat shock factor protein 1 (Mus musculus, UniProt P38532); test: decrease of HSF1-responsive luciferase luminescence – cell-based, NIH3T3, dose retest, confirmation (AID 2382); format: functional;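 note: NIH3T3 fibroblasts with HSF1-driven luciferase reporter stressed by proteasome inhibitor MG132; luminescence from HSF1-driven luciferase expression after 8 hours of MG132 stress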
T3 sequence (P38532 whole entry): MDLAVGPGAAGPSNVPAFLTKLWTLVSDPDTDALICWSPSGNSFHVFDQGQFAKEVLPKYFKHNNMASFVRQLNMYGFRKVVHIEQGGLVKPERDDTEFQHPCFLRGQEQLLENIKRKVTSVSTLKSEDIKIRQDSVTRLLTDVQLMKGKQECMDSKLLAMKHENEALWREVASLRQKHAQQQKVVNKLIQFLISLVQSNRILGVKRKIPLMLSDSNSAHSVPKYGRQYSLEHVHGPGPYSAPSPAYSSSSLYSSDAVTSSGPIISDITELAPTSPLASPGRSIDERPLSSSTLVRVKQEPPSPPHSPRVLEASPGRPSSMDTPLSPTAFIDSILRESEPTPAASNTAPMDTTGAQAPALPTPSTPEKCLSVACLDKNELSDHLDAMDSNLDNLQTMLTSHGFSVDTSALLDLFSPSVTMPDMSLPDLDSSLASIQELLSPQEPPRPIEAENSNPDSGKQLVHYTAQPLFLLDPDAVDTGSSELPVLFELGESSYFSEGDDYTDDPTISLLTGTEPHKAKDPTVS

[13] = biological target: T4, Cytochrome P450 1A2 (Homo sapiens, UniProt P05177);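 note: PubChem cytochrome P450 panel assay, CYP1A2 panel member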
T4 sequence (P05177 whole entry): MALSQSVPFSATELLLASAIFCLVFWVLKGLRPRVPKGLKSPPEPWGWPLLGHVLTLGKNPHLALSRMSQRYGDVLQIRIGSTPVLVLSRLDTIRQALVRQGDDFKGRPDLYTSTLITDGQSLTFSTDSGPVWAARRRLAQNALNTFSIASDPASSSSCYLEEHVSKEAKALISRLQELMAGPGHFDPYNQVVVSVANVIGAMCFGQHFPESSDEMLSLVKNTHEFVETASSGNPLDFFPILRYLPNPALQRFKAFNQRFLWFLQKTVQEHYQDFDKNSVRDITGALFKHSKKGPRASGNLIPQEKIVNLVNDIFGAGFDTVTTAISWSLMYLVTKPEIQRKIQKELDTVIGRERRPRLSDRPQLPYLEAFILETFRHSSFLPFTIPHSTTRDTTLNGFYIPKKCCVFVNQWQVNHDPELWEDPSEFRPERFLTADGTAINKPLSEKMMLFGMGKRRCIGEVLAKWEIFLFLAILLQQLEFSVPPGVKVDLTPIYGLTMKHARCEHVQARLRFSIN

[14] = NIH3T3 cell viability loss – ATP luminescence, mouse fibroblasts, counter-screen, dose response (AID 2010); format: functional, cell-based;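 note: cells exposed to compound for about 90 hours before reading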
[15] = Trypanosoma cruzi growth suppression in host cells – NIH3T3 host cells, beta-gal luminescence, confirmation (AID 2044); format: functional, cell-based;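 note: intracellular parasites grown in NIH/3T3 mouse fibroblasts as host cells; luminescent beta-galactosidase reporter signal from transgenic T. cruzi replicating inside host cells; inhibitors lower the luminescence signal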
[16] = tested on: Streptococcus; test: GAS UMAA2166 growth inhibition – luminescence, BacTiterGlo, counter-screen for streptokinase expression inhibitor project, dose response (AID 1915); format: functional, organism-based;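 note: potency for reduction of bacterial viability or growth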
[17] = tested on: Streptococcus sp. 'group A'; test: Streptococcus pyogenes SK(-)GAS viability under kanamycin – luminescence, BacTiterGlo, confirmation, counter-screen for streptokinase expression inhibitor project, dose response (AID 1900); format: functional, organism-based
[18] = biological target: T5, Histone-lysine N-methyltransferase NSD2 (Homo sapiens, UniProt O96028); format: biochemical
T5 sequence (O96028 whole entry): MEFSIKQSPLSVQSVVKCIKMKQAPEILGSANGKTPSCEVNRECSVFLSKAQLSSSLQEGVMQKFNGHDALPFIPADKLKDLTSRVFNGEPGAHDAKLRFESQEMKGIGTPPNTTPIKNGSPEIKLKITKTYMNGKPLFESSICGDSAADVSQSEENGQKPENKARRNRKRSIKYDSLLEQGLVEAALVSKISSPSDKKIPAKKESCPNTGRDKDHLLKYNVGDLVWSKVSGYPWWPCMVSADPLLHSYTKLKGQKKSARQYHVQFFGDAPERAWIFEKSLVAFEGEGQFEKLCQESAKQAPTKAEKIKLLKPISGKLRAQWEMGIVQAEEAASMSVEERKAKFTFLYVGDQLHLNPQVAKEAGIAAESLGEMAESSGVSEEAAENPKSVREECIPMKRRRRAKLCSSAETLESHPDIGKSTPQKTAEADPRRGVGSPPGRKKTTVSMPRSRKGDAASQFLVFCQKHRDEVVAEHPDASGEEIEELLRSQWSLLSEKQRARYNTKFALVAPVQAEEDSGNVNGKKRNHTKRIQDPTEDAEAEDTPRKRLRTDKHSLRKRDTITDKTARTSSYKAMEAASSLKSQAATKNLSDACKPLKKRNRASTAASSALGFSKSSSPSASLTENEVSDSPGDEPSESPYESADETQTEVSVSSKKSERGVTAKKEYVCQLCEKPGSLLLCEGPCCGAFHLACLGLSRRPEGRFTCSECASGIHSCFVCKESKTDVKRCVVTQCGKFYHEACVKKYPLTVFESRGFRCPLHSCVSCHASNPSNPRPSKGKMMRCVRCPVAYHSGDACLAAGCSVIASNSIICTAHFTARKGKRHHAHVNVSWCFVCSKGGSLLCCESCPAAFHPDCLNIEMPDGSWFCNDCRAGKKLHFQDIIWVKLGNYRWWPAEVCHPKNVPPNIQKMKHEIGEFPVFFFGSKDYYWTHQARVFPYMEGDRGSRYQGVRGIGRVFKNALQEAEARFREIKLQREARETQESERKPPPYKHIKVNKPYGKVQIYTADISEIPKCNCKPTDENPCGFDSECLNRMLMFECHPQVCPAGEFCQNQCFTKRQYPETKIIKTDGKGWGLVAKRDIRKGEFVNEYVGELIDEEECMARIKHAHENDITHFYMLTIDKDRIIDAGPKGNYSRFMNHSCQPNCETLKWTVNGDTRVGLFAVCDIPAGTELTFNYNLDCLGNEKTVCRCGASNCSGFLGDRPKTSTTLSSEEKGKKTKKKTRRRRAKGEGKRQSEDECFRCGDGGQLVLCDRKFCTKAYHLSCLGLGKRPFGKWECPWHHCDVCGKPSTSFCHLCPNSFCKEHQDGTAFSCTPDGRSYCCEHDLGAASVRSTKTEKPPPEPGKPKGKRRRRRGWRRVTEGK

[19] = viability of uninfected HEp-2 cells – cell-based, HTS, cytotoxicity control for RSV inhibitor project, dose response (AID 2410); format: functional; conditions: human respiratory syncytial virus
[20] = biological target: T6, Streptokinase A (Streptococcus pyogenes serotype M1, UniProt P10520); test: viability-normalized secreted streptokinase activity reduction – plasminogen activation absorbance, OD405, dose response (AID 1914); format: functional, Streptococcus pyogenes M1 GAS;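 note: secreted streptokinase activity via plasminogen activation per viability signal from cell pellet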
T6 sequence (P10520 whole entry): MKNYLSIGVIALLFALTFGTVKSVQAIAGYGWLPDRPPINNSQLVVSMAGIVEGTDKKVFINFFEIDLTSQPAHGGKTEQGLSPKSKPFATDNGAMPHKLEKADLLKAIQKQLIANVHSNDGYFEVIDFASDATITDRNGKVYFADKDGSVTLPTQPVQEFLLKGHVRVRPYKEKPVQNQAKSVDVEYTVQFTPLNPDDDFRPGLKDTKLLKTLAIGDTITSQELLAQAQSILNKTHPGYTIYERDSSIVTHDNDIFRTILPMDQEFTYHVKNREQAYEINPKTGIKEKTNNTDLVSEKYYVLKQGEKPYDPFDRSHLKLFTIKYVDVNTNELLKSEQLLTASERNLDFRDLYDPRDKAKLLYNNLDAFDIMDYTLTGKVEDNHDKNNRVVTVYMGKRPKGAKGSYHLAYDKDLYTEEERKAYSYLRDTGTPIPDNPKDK

In the case of CC1(C)OC(=O)C(=Cc2ccc(I)o2)C(=O)O1, the IC50 [1] is reported as > 100 µM (not active).

For C=CC(=O)Nc1cc2c(Nc3ccc(F)c(Cl)c3)ncnc2cc1OCCCN1CCOCC1 [CANERTINIB], the IC50 [2] was > 10 µM (inactive) and the IC50 [3] was 8.87 µM (inactive).

With Cc1oc(C)c2c(=O)ccc3c(c12)OC(N)=C(C#N)C3c1ccccc1 (centres undefined) the EC50 [4] was > 99 µM (inactive), the IC50 [5] was > 52.5 µM (active) and the EC50 [6] was > 99 µM (inactive). For the same compound, the CC50 [7] was > 40 µM (active).

With Cc1cc(C)c([C@@H]2C[C@H]3CN(C4CCCC4)C(=O)[C@]34CCCN24)c(-n2cccn2)c1 the EC50 [8] was > 50 µM (active).

With CCC(C)(C)NC(=O)COc1ccc(C(=O)c2ccccc2)cc1 the EC50 [8] was > 50 µM (active).

For Cc1cc(O)c2ccccc2c1O [VITAMIN K3H2], the IC50 [2] was > 10 µM (inactive) and the IC50 [3] was > 10 µM (inactive).

For O=C(Cc1cn2ccsc2n1)OCc1nc2ccccc2s1, the IC50 [9] was 6.98 µM (active).

With Cc1c(Br)c(=O)oc2cc(OCC(=O)N3C[C@H]4C[C@@H](C3)c3cccc(=O)n3C4)ccc12 the IC50 [10] was 8.34 µM (active) and the IC50 [11] was > 138 µM (inactive).

In the case of CC(=O)Nc1ccc2nc(C)cc(O)c2c1, the IC50 [9] is reported as 21 µM (active).

With COC(=O)COc1ccc2c(c1C)O/C(=C\c1ccco1)C2=O the IC50 [5] was > 100 µM (active) and the EC50 [12] was > 195 µM (not active).

With CCCc1nc(SCC(=O)NNC(=O)C2CCCCC2)c2ccccc2n1 the IC50 [10] was 0.896 µM (active), the IC50 [11] was > 138 µM (inactive) and the AC50 [13] was 15.8 µM (inconclusive).

With O=C(Cn1ccc([N+](=O)[O-])n1)N1CCCc2ccccc21 the IC50 [5] was > 100 µM (active).

In the case of CC(=O)NC(CSc1cc(C)nc2ccc(Br)cc12)C(=O)O (centres undefined), the IC50 [10] is reported as 4.48 µM (active) and the IC50 [11] is reported as > 138 µM (inactive).

With NCCc1c(C(=O)O)[nH]c2ccc(S(N)(=O)=O)cc12 the IC50 [1] was > 100 µM (not active).

In the case of Cc1c(Br)cc(C(=O)NCc2ccco2)c(C)c1C, the IC50 [9] is reported as > 50 µM (not active).

In the case of CS(=O)(=O)c1cnc2c(-c3ccsc3)cnn2c1N, the EC50 [8] is reported as > 50 µM (active).

With NC(=O)C1(N2CCCCC2)CCN(c2nc(-c3ccc(Br)cc3)cs2)CC1 the EC50 [14] was > 60 µM (inconclusive), the IC50 [9] was 37.8 µM (not active) and the EC50 [15] was 1.78 µM (active).

For COc1ccc(-c2csc(Nc3ccc(S(=O)(=O)Nc4cc(C)on4)cc3)n2)cc1C, the EC50 [16] was 10.7 µM (active), the EC50 [17] was 5.7 µM (active) and the AC50 [18] was 11.9 µM (active). For the same compound, the CC50 [19] was 8.8 µM (active) and the EC50 [20] was > 150 µM (not active).
